Assay results from patent publication US12129223B2, “Lipids for use in lipid nanoparticle formulations” (Acuitas Therapeutics, Inc., priority 2021, dated 2024).

Legend:
[1] = test system: luciferase expression in the liver; test: Luciferase mRNA in vivo evaluation using lipid nanoparticle compositions; set-up: species or system mice; settings: LNP with FLuc mRNA, tail vein injection, ng luciferase/g liver 4 hours after administration
In short: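 LNPs were made from cationic lipid/DSPC/cholesterol/PEG-lipid (50:10:38.5:1.5 or 47.5:10:40.7:1.8) with modified FLuc mRNA and given by tail-vein injection to mice at 1.0, 0.5 or 0.3 mg mRNA/kg. Liver luciferase was measured at 4 h by luminescence, normalized to protein and converted to ng luciferase/g liver by standard curve.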

[2] = Determination of pKa of formulated lipids (TNS fluorescence assay in lipid nanoparticles); format: physicochemical; settings: lipid nanoparticles (compound/DSPC/cholesterol/PEG-lipid), lipid formulated in LNP (lipid/DSPC/cholesterol/PEG-lipid), pH at half-maximal intensity
In short: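 LNPs (compound/DSPC/cholesterol/PEG-lipid, 50/10/38.5/1.5 or 47.5:10:40.7:1.8 mol %) diluted to 24 μM lipid in HEPES/MES/ammonium acetate/NaCl buffers, pH 2.5–11, with 1 μM TNS. Fluorescence read at room temperature, ex 321/em 445 nm. pKa taken as pH of half-maximal intensity from sigmoidal fit.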

human IgG in mouse serum = test: Immunoglobulin G (IgG) mRNA in vivo evaluation using lipid nanoparticle compositions; set-up: species or system mice; settings: LNP with IgG mRNA, tail vein injection, serum 24 hours after administration
Protocol: A lipid of structure (I), DSPC, cholesterol and PEG-lipid are solubilized in ethanol at a molar ratio of 50:10:38.5:1.5 or 47.5:10:40.7:1.8. Lipid nanoparticles (LNP) are prepared at a total lipid to mRNA weight ratio of approximately 10:1 to 40:1. Briefly, the mRNA is diluted to 0.2 mg/mL in 10 to 50 mM citrate buffer, pH 4 or 10 to 25 mM acetate buffer, pH 4. Syringe pumps are used to mix the ethanolic lipid solution with the mRNA aqueous solution at a ratio of about 1:5 to 1:3 (vol/vol) with total flow rates above 15 mL/min. The ethanol is then removed and the external buffer replaced with PBS by dialysis. Finally, the lipid nanoparticles are filtered through a 0.2 µm pore sterile filter.
Studies are performed in 6-8 week old CD-1/ICR mice (Envigo) according to guidelines established by an institutional animal care committee (ACC) and the Canadian Council on Animal Care (CCAC). Varying doses of mRNA-lipid nanoparticle are systemically administered by tail vein injection and animals euthanized at a specific time point (e.g., 24 hours) post-administration. The whole blood is collected, and the serum subsequentially separated by centrifuging the tubes of the whole blood at 2000×g for 10 minutes at 4° C. and stored at −80° C. until use for analysis.
For immunoglobulin G (IgG) ELISA (Life Diagnostics Human IgG ELISA kit), the serum samples are diluted at 100 to 15000 folds with 1×diluent solution. 100 μL of diluted serum is dispensed into anti-human IgG coated 96-well plate in duplicate alongside human IgG standards and incubated in a plate shaker at 150 rpm at 25° C. for 45 minutes. The wells are washed 5 times with 1× wash solution using a plate washer (400 μL/well). 100 μL of HRP conjugate is added into each well and incubated in a plate shaker at the same condition above. The wells are washed 5 times again with 1× wash solution using a plate washer (400 μL/well). 100 μL of TMB reagent is added into each well and incubated in a plate shaker at the same condition above. The reaction is stopped by adding 100 μL of Stop solution to each well. The absorbance is read at 450 nm (A450) with a microplate reader. The amount of human IgG in mouse serum is determined by plotting A450 values for the assay standard against human IgG concentration.
Representative compounds of the disclosure shown in Table 2 were formulated using the following molar ratio: 50% cationic lipid/10% distearoylphosphatidylcholine (DSPC)/38.5% Cholesterol/1.5% PEG lipid 2-[2-(ω-methoxy(polyethyleneglycol2000)ethoxy]-N,N-ditetradecyl acetamide) or 47.5% cationic lipid/10% DSPC/40.7% Cholesterol/1.8% PEG lipid. Relative activity was determined by measuring luciferase expression in the liver 4 hours following administration via tail vein injection as described in Example 1 or by measuring the amount of human IgG in mouse serum as described in example 2. The activity was compared at a dose of 1.0 or 0.5 or 0.3 mg mRNA/kg and expressed as ng luciferase/g liver measured 4 hours after administration, as described in Example 1 or as μg IgG/mL serum measured 24 hours after administration, as described in Example 2. Compound numbers in Table 2 refer to the compound numbers of Table 1.

pKa [2]: 6.24
Compound: CCCCCCCCCCN(CCCCCCCCCC)C(=O)CCCCCCCN(CCCCCCO)CCCCCCCC(=O)N(CCCCCCCCCC)CCCCCCCCCC [Compound I-24, 8,8′-((6-hydroxyhexyl)azanediyl)bis(N,N-didecyloctanamide)]
Liver Luc @ 0.3 mg/kg ([1]; 0.3 mg mRNA/kg): 9106 ± 1760 ng/g
Liver Luc @ 1.0 mg/kg ([1]; 1.0 mg mRNA/kg): 38913 ± 14318 ng/g
Serum IgG @ 0.3 mg/kg (human IgG in mouse serum; 0.3 mg mRNA/kg): 27.46 ± 9.22 µg/mL
Serum IgG @ 1.0 mg/kg (human IgG in mouse serum; 1.0 mg mRNA/kg): 112.31 ± 14.51 µg/mL
